The structures appear in SMILES notation.

One data set can be described thus: Acute toxicity test. The class given is in vivo. From the text:
(§1) The toxicological test of the compound of formula (I) includes: • 1. Acute toxicity test: including tests of oral administration, intravenous injection administration, and maximum limit amount for administration; • 2. Ames test; • 3. Micronucleus test of mouse bone marrow cell; • 4. Abnormality test of mouse sperm; • 5. Aberration test of mouse testis chromosome; • 6. Chronic lethal test; • 7. Sub-chronic toxicity (feed for 90 days) test; • 8. Traditional deformity-inducing test.

For data set [1], the system named is Kunming mice fed with methanol. Nature of the data set: Methanol poisoning test. In kind it is in vivo. Particulars: 15 mice, i.p. 0.1 g/ml aqueous solution. As to the method:
1. Methanol Poisoning Test
(§2) 30 Kunming mice were randomly divided into two groups, i.e., 15 mice in test group (I) and 15 mice in test group (II), and another 15 mice were used as control. Each mouse was fed with methanol in a dose of 0.2 ml/20 g bodyweight. […] The mice of the test group (I) were intra-peritoneally injected with an aqueous solution of N-acetyl-D-glucosamine having a concentration of 0.1 g/ml in a dose of 0.1 ml/20 g bodyweight, just after they were fed with methanol. […] The mice of the test group (II) were intra-peritoneally injected with an aqueous solution of N-acetyl-D-glucosamine having a concentration of 0.1 g/ml in a dose of […], just after they were fed with methanol. […] 2. Rogor Poisoning Test 30 Kunming mice were randomly divided into three groups, i.e., 10 mice in control group, 10 mice in test group (I) and 10 mice in test group (II). The mice were orally fed with 10000 times diluted rogor stock solution (commercially obtained from Chongqing Agriculture Chemicals Group, 500 ml/bottle, standard: GB15583-1995) in a dose of 0.5 ml per mouse for consecutive 3 days. […] The mice of the test groups were treated by intra-peritoneal injection of an aqueous solution of N-acetyl-D-glucosamine having a concentration of 5 g/100 ml in a dose of 0.2 ml for the test group (I) and a dose of 2 ml for the test group (II). […] 3. Lead Poisoning Test 30 Kunming mice were made as lead poisoning models by a method of feeding litharge. […] The mice of the test group (I) were treated by intra-peritoneal injection of N-acetyl-D-glucosamine in a dose of 0.2 ml×10% (weight/volume), and the mice of the test group (II) were treated by intra-peritoneal injection with N-acetyl-D-glucosamine in a dose of 2 ml×10% (weight/volume). The death rate of mice was separately 7/10 and 2/10 within 3 days, and the death rate of mice was 1/3 and 0/8 within the following 4 days. […] According to the above examples, N-acetyl-D-glucosamine can effectively eliminate toxic effects of at least toxicants such as metal ions, organophosphorus pesticides, methanol, etc. that have different action mechanisms.

The test system of another data set is mice. Nature of the data set: Reproduction test. The class given is in vivo. Particulars: mice fed 7 mg/kg for 3 generations.
For the next data set, the system named is Proteus Mirabilis. The data set is described as follows: Promoting wave test (bio-wave model). The class given is cell-based. Particulars: final concentration 0.5% in LB plate, 37° C., 9 hours, compared with control sample. From the text: 1. Experimental Materials and Method:
1.1 Sample: Pure Compound of Formula (I)
1.2 Experimental Materials:
• Strain: Proteus Mirabilis that meets the following biochemical reaction characteristics: dynamics (+), urease (+), lactose (−), glucose (+), H2S (−), phenylalanine deaminase (+). • Culture medium: modified LB culture medium (components: 1% tryptones, 0.5% yeast extract, 1% sodium chloride, 0.1% glucose, 0.002% TTC, and pH=7.2 to 7.4). 1.3 Experimental Method: • Control sample: the Proteus Mirabilis were inoculated at the center of LB plate, and incubated at 37° C. for 9 hours; • Test sample: the compound of formula (I) with a final concentration of 0.5% was added to the LB plate, then the Proteus Mirabilis were inoculated by the same method, and cultured at 37° C. for 9 hours. 2. […] It is anticipated that this wave-promoting function could treat organ lesions caused by toxicants and drugs.

The nature of data set [2]: Long-period toxicity test. In kind it is in vivo. The note with it: maximum dosage up to 1 g/kg, treatment and observation for four weeks.
Excerpt: as §1

Data set [3] relates to Kunming mice fed with rogor. Nature of the data set: Rogor poisoning test. Particulars: 10 mice, i.p. 5 g/100 ml aqueous solution. The class given is in vivo. The procedure: 30 Kunming mice were randomly divided into two groups, i.e., 15 mice in test group (I) and 15 mice in test group (II), and another 15 mice were used as control. Each mouse was fed with methanol in a dose of 0.2 ml/20 g bodyweight. […] The mice of the test group (I) were intra-peritoneally injected with an aqueous solution of N-acetyl-D-glucosamine having a concentration of 0.1 g/ml in a dose of 0.1 ml/20 g bodyweight, just after they were fed with methanol. […] The mice of the test group (II) were intra-peritoneally injected with an aqueous solution of N-acetyl-D-glucosamine having a concentration of 0.1 g/ml in a dose of […], just after they were fed with methanol. […] 2. Rogor Poisoning Test 30 Kunming mice were randomly divided into three groups, i.e., 10 mice in control group, 10 mice in test group (I) and 10 mice in test group (II). The mice were orally fed with 10000 times diluted rogor stock solution (commercially obtained from Chongqing Agriculture Chemicals Group, 500 ml/bottle, standard: GB15583-1995) in a dose of 0.5 ml per mouse for consecutive 3 days. […] The mice of the test groups were treated by intra-peritoneal injection of an aqueous solution of N-acetyl-D-glucosamine having a concentration of 5 g/100 ml in a dose of 0.2 ml for the test group (I) and a dose of 2 ml for the test group (II). […] 3. […]

The subject of data set [4] is Kunming mice lead poisoning models (litharge). Nature of the data set: Lead poisoning test. The class given is in vivo. The procedure: as §2
[5] abbreviates: test group (I), 0.1 ml/20 g bodyweight.
[6] abbreviates: test group (II), 2 ml/20 g bodyweight.
Where [7] appears, read: test group (I), i.p. 0.2 ml×10% (weight/volume).
The mark [8] stands for this setting: test group (II), i.p. 2 ml×10% (weight/volume).

`CC(=O)N[C@@H]1[C@@H](O)[C@H](O)[C@@H](CO)O[C@H]1O` [compound of formula (I), N-acetyl-D-glucosamine]: in the data set “Acute toxicity test”, the “dosage at which the acute toxicosis reaction had not appeared” value was “more than 2 g/kg”. Also, in data set [1] (setting [5]), the mice sequentially died is reported as 5 mice and the “mice with obvious psychiatric symptoms” value was 2 mice. Also, in data set [1] (test group (I), 0.1 ml/20 g bodyweight, just after methanol 0.2 ml/20 g), the “mice blind after 2 hours” value is 8 mice. In addition, in data set [1] (setting [6]), the blind mice result is reported as “no mouse was blind”; the “mice died within 12 hours” value amounted to 2 mice; the “mice with delirium and myasthenia of limbs” value amounted to 4 mice. Moreover, the “influence on pregnancy, birth, nurse and growth of baby mice” value in the data set with mice is reported as “no influence”. Also, in the data set on Proteus Mirabilis, the “wave pattern of the colony (bio-wave promoting function)” value is reported as “many fine waves on each ring”. Moreover, the “intoxication reaction in long-period toxicity test” value in data set [2] is listed as “no intoxication reaction”. Also, the mice died in data set [3] (test group (I), 0.2 ml) is 4 mice. For the same compound, the mice died in data set [3] (test group (II), 2 ml) came to 1 mouse. In addition, in data set [4] (setting [7]), the “death rate within 3 days” value is 7/10 and the “death rate within the following 4 days” value was 1/3. Also, in data set [4] (setting [8]), the “death rate within 3 days” value is recorded as 2/10 and the “death rate within the following 4 days” value was 0/8.

The record behind these values is US7345030B2, “Use of n-acetyl-d-aminoglycosamine in treatment of organ lesions related to toxicosis of drugs or chemicals” (priority 2003, dated 2008).
